Data: EPA's CvTdb concentration-time database

How the values were obtained:
rat [1] = assay: concentration in blood after dosing; conditions: male
rat [2] = assay: concentration in heart/thymus after dosing; conditions: dosed: [3H]benzo(a)pyrene, 1 ug/kg, inhalation, male, Sprague Dawley, radiolabel
rat [3] = assay: concentration in kidney after dosing; conditions: dosed: [3H]benzo(a)pyrene, 1 ug/kg, inhalation, male, Sprague Dawley, radiolabel
rat [4] = assay: concentration in body after dosing; conditions: dosed: [3H]benzo(a)pyrene, 1 ug/kg, inhalation, male, Sprague Dawley, radiolabel
rat [5] = assay: concentration in testes after dosing; conditions: dosed: [3H]benzo(a)pyrene, 1 ug/kg, inhalation, male, Sprague Dawley, radiolabel
rat [6] = assay: concentration in intestines after dosing; conditions: dosed: [3H]benzo(a)pyrene, 1 ug/kg, inhalation, male, Sprague Dawley, radiolabel
rat [7] = assay: concentration in lung after dosing; conditions: dosed: [3H]benzo(a)pyrene, 1 ug/kg, inhalation, male, Sprague Dawley, radiolabel
rat [8] = assay: concentration in feces after dosing; conditions: dosed: [3H]benzo(a)pyrene, 1 ug/kg, inhalation, male, Sprague Dawley, radiolabel
rat [9] = assay: concentration in stomach after dosing; conditions: dosed: [3H]benzo(a)pyrene, 1 ug/kg, inhalation, male, Sprague Dawley, radiolabel
rat [10] = assay: concentration in liver after dosing; conditions: dosed: [3H]benzo(a)pyrene, 1 ug/kg, inhalation, male, Sprague Dawley, radiolabel
rat [11] = assay: concentration in spleen after dosing; conditions: dosed: [3H]benzo(a)pyrene, 1 ug/kg, inhalation, male, Sprague Dawley, radiolabel
rat [12] = assay: concentration in urine after dosing; conditions: dosed: [3H]benzo(a)pyrene, 1 ug/kg, inhalation, male, Sprague Dawley, radiolabel
Rat [13] = conditions: dosed: dibromoacetic acid, 40 mg/kg, oral, Male, F344
Rat [14] = conditions: dosed: dibromoacetic acid, 100 mg/kg, oral, Male, F344
Rat [15] = conditions: dosed: dibromoacetic acid, 100 mg/kg, oral, Male, F344; remark: listed apart in the source
Rat [16] = conditions: dosed: dibromoacetic acid, 100 mg/kg, oral, Male, F344; remark: listed apart in the source
Rat [17] = conditions: dosed: dibromoacetic acid, 40 mg/kg, oral, Male, F344; remark: listed apart in the source
Rat [18] = conditions: dosed: dibromoacetic acid, 40 mg/kg, oral, Male, F344; remark: listed apart in the source
rat [19] = assay: concentration in blood after dosing; conditions: dosed: hexane, 60000 ppm, dermal, duration: 4 hr, male, F344
rat [20] = assay: concentration in blood after dosing; conditions: dosed: hexane, 60000 ppm, dermal, duration: 4 hr, male, F344; remark: listed apart in the source
rat [21] = assay: concentration in blood after dosing; conditions: dosed: hexane, 60000 ppm, dermal, duration: 4 hr, male, F344; remark: listed apart in the source
rat [22] = assay: concentration in blood after dosing; conditions: dosed: hexane, 60000 ppm, dermal, duration: 4 hr, male, F344; remark: listed apart in the source
rat [23] = assay: concentration in blood after dosing; conditions: dosed: perchloroethylene, 12500 ppm, dermal, duration: 4 hr, male, F344
rat [24] = assay: concentration in blood after dosing; conditions: dosed: perchloroethylene, 12500 ppm, dermal, duration: 4 hr, male, F344; remark: listed apart in the source
rat [25] = assay: concentration in blood after dosing; conditions: dosed: perchloroethylene, 12500 ppm, dermal, duration: 4 hr, male, F344; remark: listed apart in the source

[3H][3H] [[3H] radioactivity]
rat [1], dosed: [3H]benzo(a)pyrene, 1 ug/kg, inhalation, Sprague Dawley, radiolabel
Conditions	concentration in blood [µg/kg]
0.25 h	0.038
0.5 h	0.016
1 h	0.016
1.5 h	0.021
2 h	0.019
3 h	0.011
4 h	0.008
5 min	0.039
6 h	0.017
10 min	0.03

Conditions	concentration in body [µg/kg]	concentration in feces [µg/kg]	concentration in heart/thymus [µg/kg]	concentration in intestines [µg/kg]	concentration in kidney [µg/kg]	concentration in liver [µg/kg]	concentration in lung [µg/kg]	concentration in spleen [µg/kg]	concentration in stomach [µg/kg]	concentration in testes [µg/kg]	concentration in urine [µg/kg]
rat [2], 0.25 h	–	–	0.008	–	–	–	–	–	–	–	–
rat [2], 0.5 h	–	–	0.005	–	–	–	–	–	–	–	–
rat [2], 1 h	–	–	0.005	–	–	–	–	–	–	–	–
rat [2], 1.5 h	–	–	0.005	–	–	–	–	–	–	–	–
rat [2], 2 h	–	–	0.006	–	–	–	–	–	–	–	–
rat [2], 3 h	–	–	0.005	–	–	–	–	–	–	–	–
rat [2], 4 h	–	–	0.004	–	–	–	–	–	–	–	–
rat [2], 5 min	–	–	0.009	–	–	–	–	–	–	–	–
rat [2], 6 h	–	–	0.004	–	–	–	–	–	–	–	–
rat [2], 10 min	–	–	0.016	–	–	–	–	–	–	–	–
rat [3], 0.25 h	–	–	–	–	0.019	–	–	–	–	–	–
rat [3], 0.5 h	–	–	–	–	0.014	–	–	–	–	–	–
rat [3], 1 h	–	–	–	–	0.022	–	–	–	–	–	–
rat [3], 1.5 h	–	–	–	–	0.024	–	–	–	–	–	–
rat [3], 2 h	–	–	–	–	0.02	–	–	–	–	–	–
rat [3], 3 h	–	–	–	–	0.018	–	–	–	–	–	–
rat [3], 4 h	–	–	–	–	0.017	–	–	–	–	–	–
rat [3], 5 min	–	–	–	–	0.011	–	–	–	–	–	–
rat [3], 6 h	–	–	–	–	0.02	–	–	–	–	–	–
rat [3], 10 min	–	–	–	–	0.019	–	–	–	–	–	–
rat [4], 0.25 h	0.23	–	–	–	–	–	–	–	–	–	–
rat [4], 0.5 h	0.263	–	–	–	–	–	–	–	–	–	–
rat [4], 1 h	0.271	–	–	–	–	–	–	–	–	–	–
rat [4], 1.5 h	0.25	–	–	–	–	–	–	–	–	–	–
rat [4], 2 h	0.223	–	–	–	–	–	–	–	–	–	–
rat [4], 3 h	0.214	–	–	–	–	–	–	–	–	–	–
rat [4], 4 h	0.21	–	–	–	–	–	–	–	–	–	–
rat [4], 5 min	0.144	–	–	–	–	–	–	–	–	–	–
rat [4], 6 h	0.215	–	–	–	–	–	–	–	–	–	–
rat [4], 10 min	0.264	–	–	–	–	–	–	–	–	–	–
rat [5], 0.25 h	–	–	–	–	–	–	–	–	–	0.007	–
rat [5], 0.5 h	–	–	–	–	–	–	–	–	–	0.006	–
rat [5], 1 h	–	–	–	–	–	–	–	–	–	0.011	–
rat [5], 1.5 h	–	–	–	–	–	–	–	–	–	0.013	–
rat [5], 2 h	–	–	–	–	–	–	–	–	–	0.011	–
rat [5], 3 h	–	–	–	–	–	–	–	–	–	0.008	–
rat [5], 4 h	–	–	–	–	–	–	–	–	–	0.009	–
rat [5], 5 min	–	–	–	–	–	–	–	–	–	0.004	–
rat [5], 6 h	–	–	–	–	–	–	–	–	–	0.008	–
rat [5], 10 min	–	–	–	–	–	–	–	–	–	0.005	–
rat [6], 0.25 h	–	–	–	0.049	–	–	–	–	–	–	–
rat [6], 0.5 h	–	–	–	0.052	–	–	–	–	–	–	–
rat [6], 1 h	–	–	–	0.099	–	–	–	–	–	–	–
rat [6], 1.5 h	–	–	–	0.126	–	–	–	–	–	–	–
rat [6], 2 h	–	–	–	0.11	–	–	–	–	–	–	–
rat [6], 3 h	–	–	–	0.123	–	–	–	–	–	–	–
rat [6], 4 h	–	–	–	0.133	–	–	–	–	–	–	–
rat [6], 5 min	–	–	–	0.019	–	–	–	–	–	–	–
rat [6], 6 h	–	–	–	0.149	–	–	–	–	–	–	–
rat [6], 10 min	–	–	–	0.033	–	–	–	–	–	–	–
rat [7], 0.25 h	–	–	–	–	–	–	0.322	–	–	–	–
rat [7], 0.5 h	–	–	–	–	–	–	0.204	–	–	–	–
rat [7], 1 h	–	–	–	–	–	–	0.154	–	–	–	–
rat [7], 1.5 h	–	–	–	–	–	–	0.113	–	–	–	–
rat [7], 2 h	–	–	–	–	–	–	0.11	–	–	–	–
rat [7], 3 h	–	–	–	–	–	–	0.068	–	–	–	–
rat [7], 4 h	–	–	–	–	–	–	0.035	–	–	–	–
rat [7], 5 min	–	–	–	–	–	–	0.595	–	–	–	–
rat [7], 6 h	–	–	–	–	–	–	0.052	–	–	–	–
rat [7], 10 min	–	–	–	–	–	–	0.419	–	–	–	–
rat [8], 0.25 h	–	0.029	–	–	–	–	–	–	–	–	–
rat [8], 0.5 h	–	0.033	–	–	–	–	–	–	–	–	–
rat [8], 1 h	–	0.143	–	–	–	–	–	–	–	–	–
rat [8], 1.5 h	–	0.171	–	–	–	–	–	–	–	–	–
rat [8], 2 h	–	0.168	–	–	–	–	–	–	–	–	–
rat [8], 3 h	–	0.256	–	–	–	–	–	–	–	–	–
rat [8], 4 h	–	0.301	–	–	–	–	–	–	–	–	–
rat [8], 5 min	–	0.005	–	–	–	–	–	–	–	–	–
rat [8], 6 h	–	0.447	–	–	–	–	–	–	–	–	–
rat [8], 10 min	–	0.008	–	–	–	–	–	–	–	–	–
rat [9], 0.25 h	–	–	–	–	–	–	–	–	0.007	–	–
rat [9], 0.5 h	–	–	–	–	–	–	–	–	0.012	–	–
rat [9], 1 h	–	–	–	–	–	–	–	–	0.046	–	–
rat [9], 1.5 h	–	–	–	–	–	–	–	–	0.037	–	–
rat [9], 2 h	–	–	–	–	–	–	–	–	0.069	–	–
rat [9], 3 h	–	–	–	–	–	–	–	–	0.05	–	–
rat [9], 4 h	–	–	–	–	–	–	–	–	0.04	–	–
rat [9], 5 min	–	–	–	–	–	–	–	–	0.003	–	–
rat [9], 6 h	–	–	–	–	–	–	–	–	0.058	–	–
rat [9], 10 min	–	–	–	–	–	–	–	–	0.007	–	–
rat [10], 0.25 h	–	–	–	–	–	0.196	–	–	–	–	–
rat [10], 0.5 h	–	–	–	–	–	0.186	–	–	–	–	–
rat [10], 1 h	–	–	–	–	–	0.158	–	–	–	–	–
rat [10], 1.5 h	–	–	–	–	–	0.171	–	–	–	–	–
rat [10], 2 h	–	–	–	–	–	0.132	–	–	–	–	–
rat [10], 3 h	–	–	–	–	–	0.083	–	–	–	–	–
rat [10], 4 h	–	–	–	–	–	0.067	–	–	–	–	–
rat [10], 5 min	–	–	–	–	–	0.125	–	–	–	–	–
rat [10], 6 h	–	–	–	–	–	0.046	–	–	–	–	–
rat [10], 10 min	–	–	–	–	–	0.208	–	–	–	–	–
rat [11], 0.25 h	–	–	–	–	–	–	–	0.004	–	–	–
rat [11], 0.5 h	–	–	–	–	–	–	–	0.002	–	–	–
rat [11], 1 h	–	–	–	–	–	–	–	0.003	–	–	–
rat [11], 1.5 h	–	–	–	–	–	–	–	0.002	–	–	–
rat [11], 2 h	–	–	–	–	–	–	–	0.002	–	–	–
rat [11], 3 h	–	–	–	–	–	–	–	0.002	–	–	–
rat [11], 4 h	–	–	–	–	–	–	–	0.001	–	–	–
rat [11], 5 min	–	–	–	–	–	–	–	0.005	–	–	–
rat [11], 6 h	–	–	–	–	–	–	–	0.002	–	–	–
rat [11], 10 min	–	–	–	–	–	–	–	0.003	–	–	–
rat [12], 0.25 h	–	–	–	–	–	–	–	–	–	–	0.002
rat [12], 0.5 h	–	–	–	–	–	–	–	–	–	–	0.001
rat [12], 1 h	–	–	–	–	–	–	–	–	–	–	0.003
rat [12], 1.5 h	–	–	–	–	–	–	–	–	–	–	0.008
rat [12], 2 h	–	–	–	–	–	–	–	–	–	–	0.011
rat [12], 3 h	–	–	–	–	–	–	–	–	–	–	0.012
rat [12], 4 h	–	–	–	–	–	–	–	–	–	–	0.016
rat [12], 6 h	–	–	–	–	–	–	–	–	–	–	0.022
rat [12], 10 min	–	–	–	–	–	–	–	–	–	–	0.0001

O=C(O)C(Br)Br [dibromoacetic acid]
amount in urine after dosing [µg]
Conditions	Rat [13]	Rat [14]	Rat [15]	Rat [16]	Rat [17]	Rat [18]
2 h	0.735	17.7	–	–	–	–
4 h	–	54.6	55.8	61.7	8.7	–
8 h	–	44.1	–	–	3.52	11.7
24 h	4.47	19.1	81	37.7	3.52	1.52
48 h	–	4.62	5.03	2.24	–	–

CCCCCC [hexane]
rat [1], dosed: hexane, 60000 ppm, dermal, duration: 4 hr, F344
Conditions	concentration in blood [ng/mL]
0.5 h	606
1 h	903
2 h	500

concentration in blood [ng/mL]
Conditions	0.5 h	1 h	2 h	3 h	4 h
rat [19]	1240	804	1100	1300	999
rat [20]	–	406	812	796	200
rat [21]	1500	31.2	–	304	804
rat [22]	–	708	112	414	–

ClC(Cl)=C(Cl)Cl [perchloroethylene]
rat [1], dosed: perchloroethylene, 12500 ppm, dermal, duration: 4 hr, F344
Conditions	concentration in blood [ng/mL]
0.5 h	20600
1 h	21100
2 h	21500
3 h	25200
4 h	29200

concentration in blood [ng/mL]
Conditions	0.5 h	1 h	2 h	3 h	4 h
rat [23]	17000	45000	39600	31600	42600
rat [24]	3610	15200	19600	13900	29200
rat [25]	6940	32300	29900	17500	32300
